Measured values: patent US11827664B2, “Biaryl amides with modified sugar groups for treatment of diseases associated with heat shock protein pathway” (REATA PHARMACEUTICALS, INC., priority 2018, dated 2023)

Columns and labels:
diabetic mice = conditions: cited from earlier work
neurons [1] = conditions: cited from earlier work; for effect on mitochondrial function / bioenergetics: neurons
[2] = Stability in acidic medium, monitored by HPLC; format: physicochemical; conditions: 0.1 N aq. HCl/MeOH (2/1 v/v), room temperature
Method: A sample of a test compound (1.2 mg) was dissolved in 0.1 N aq. HCl/MeOH (2/1 v/v, 4 mL) at room temperature. The degradation of the test compound was monitored by HPLC. The percentage of the test compound remaining was calculated using the peak area % in HPLC.

[3] = system: rat streptozotocin induced diabetes model for painful diabetic neuropathy; experiment: Streptozotocin-induced rat model of painful diabetic neuropathy, Von Frey measurement for allodynia; format: in vivo; conditions: STZ 60 mg/kg IV, oral QD dosing started on Day 10
Method: A streptozotocin-induced rat model was used to test the effectiveness of KU-596 (T0) and several of the instant compounds in a model of painful diabetic neuropathy. The study rats were allowed to accliminate to the Von Frey apparatus for one day prior to the initial Von Frey measurement. A baseline Von Frey measurement, a body weight measurement, and blood glucose level measurements were conducted one day before the intravenous administration of streptozotocin to induce diabetes. […] Each of the animals in a treatment group was dosed with either the vehicle or a therapeutic agent orally. Treatment was continued until euthanasia approximately one to two weeks later.
Streptozotocin was injected into rats to induce diabetes after a baseline Von Frey measurement for allodynia was collected. Oral administration of each test drug (Compound T0 (KU-596), FIG. 1A; Compound T2, FIG. 1B, and Compound T1, FIG. 1C) was started on Day 10 after another Von Frey measurement.

neurons [4] = conditions: in vitro; cited from earlier work
[5] = target: Hsp90 C-terminus nucleotide binding pocket; conditions: low affinity; Marcu, et al., 2000; cited from earlier work
[6] = 22 hours (footnote *, printed in the 24 h line)

SMILES	percentage of test compound remaining (HPLC peak area %) ([2]; 0 h)	percentage of test compound remaining (HPLC peak area %) ([2]; 4 h)	percentage of test compound remaining (HPLC peak area %) ([2]; 8 h)	percentage of test compound remaining (HPLC peak area %) ([2]; 12 h)	percentage of test compound remaining (HPLC peak area %) ([2]; 16 h)	percentage of test compound remaining (HPLC peak area %) ([2]; 20 h)	percentage of test compound remaining (HPLC peak area %) ([2]; 24 h)	percentage of test compound remaining (HPLC peak area %) [2, 6]	effect on symptoms of DPN / neuropathy in diabetic mice (diabetic mice)	effect on mitochondrial function / bioenergetics (neurons [1])	activity in model of painful diabetic neuropathy relative to T0 (KU-596), Von Frey measurement [3]	protection of neurons from hyperglycemic conditions (neurons [4])	effect on expression of inflammatory markers (neurons [1]; diabetic neurons)	IC50 [5]
CO[C@@H]1[C@@H](O)[C@@H](O)[C@H](Oc2ccc3cc(NC(C)=O)c(=O)oc3c2C)OC1(C)C [KU-32]	–	–	–	–	–	–	–	–	significant activity in reversing established symptoms of DPN in diabetic mice	improve mitochondrial bioenergetics	–	–	–	–
CC(=O)NCCc1ccc(O[C@@H]2OC(C)(C)[C@H](OCc3ccccc3)[C@@H](O)[C@H]2O)cc1-c1cccc(F)c1 [T7]	100.0%	93.3%	85.6%	78.8%	71.5%	65.5%	61.7%	–	–	–	–	–	–	–
CO[C@@H]1[C@@H](O)[C@@H](O)[C@H](Oc2ccc(CCNC(C)=O)c(-c3cccc(F)c3)c2)OC1(C)C [T0, reference compound]	100.0%	96.7 ± 1.4%	93.4 ± 1.7%	90.5 ± 2.3%	87.3 ± 2.9%	83.9 ± 4.1%	81.8 ± 4.2%	–	–	–	–	–	–	–
CO[C@@H]1[C@@H](O)[C@@H](O)[C@H](Oc2ccc(C(F)(F)CNC(C)=O)c(-c3cccc(F)c3)c2)OC1(C)C [T12]	100.0%	97.2%	95.5%	93.7%	92.3%	90.6%	–	89.9* %	–	–	–	–	–	–
CO[C@@H]1[C@@H](O)[C@@H](O)[C@H](Oc2ccc(CCNC(C)=O)c(-c3cccc(F)c3)c2)O[C@H]1C [T2]	100.0%	99.9%	99.5%	99.8%	100.2%	99.9%	–	100.2* %	–	–	comparable to slightly better activity	–	–	–
CC(=O)NCCc1ccc(O[C@H]2O[C@H](C)[C@@H](O)[C@H](O)[C@@H]2O)cc1-c1cccc(F)c1 [T54]	100.0%	100.4%	100.2%	101.0%	101.1%	101.3%	101.2%	–	–	–	–	–	–	–
CO[C@@H]1[C@@H](O)[C@@H](O)C(Oc2ccc(CCNC(C)=O)c(-c3cccc(F)c3)c2)OC1(C)C (stereo partly drawn) [KU-596, N-(2-(5-(((3R,4S,5R)-3,4-dihydroxy-5-methoxy-6,6-dimethyltetra-hydro-2H-pyran-2-yl)oxy)-3′-fluoro-[1,1′-biphenyl]-2-yl)ethyl)-acetamide]	–	–	–	–	–	–	–	–	alleviate symptoms of neuropathy in diabetic mice	improve impaired mitochondrial function in neurons	–	protect neurons from hyperglycemic conditions in vitro	reduce the expression of inflammatory markers in diabetic neurons	–
CC(=O)NCCc1ccc(O[C@@H]2OC(C)(C)[C@H](O)[C@@H](O)[C@H]2O)cc1-c1cccc(F)c1 [T3]	100.0%	98.1%	96.1%	94.1%	92.2%	90.2%	88.3%	–	–	–	–	–	–	–
CNC(=O)CCc1ccc(O[C@@H]2OC(C)(C)[C@H](OC)[C@@H](O)[C@H]2O)cc1-c1cccc(F)c1 [T57]	100.0%	97.9%	93.4%	90.3%	86.4%	82.5%	79.3%	–	–	–	–	–	–	–
CO[C@@H]1[C@@H](OC(N)=O)[C@@H](O)[C@H](Oc2ccc3c(O)c(NC(=O)c4ccc(O)c(CC=C(C)C)c4)c(=O)oc3c2C)OC1(C)C [novobiocin]	–	–	–	–	–	–	–	–	–	–	–	–	–	~700 µM
CNC(=O)CCc1ccc(O[C@@H]2O[C@@H](C)[C@H](OC)[C@@H](O)[C@H]2O)cc1-c1cccc(F)c1 [T11]	100.0%	100.2%	100.3%	100.6%	100.9%	101.4%	102.1%	–	–	–	–	–	–	–

Second part, led by results:

percentage of test compound remaining (HPLC peak area %) ([2]; 0 h)	percentage of test compound remaining (HPLC peak area %) ([2]; 4 h)	percentage of test compound remaining (HPLC peak area %) ([2]; 8 h)	percentage of test compound remaining (HPLC peak area %) ([2]; 12 h)	percentage of test compound remaining (HPLC peak area %) ([2]; 16 h)	percentage of test compound remaining (HPLC peak area %) ([2]; 20 h)	percentage of test compound remaining (HPLC peak area %) ([2]; 24 h)	percentage of test compound remaining (HPLC peak area %) [2, 6]	SMILES	effect on symptoms of DPN / neuropathy in diabetic mice (diabetic mice)	effect on mitochondrial function / bioenergetics (neurons [1])	activity in model of painful diabetic neuropathy relative to T0 (KU-596), Von Frey measurement [3]	protection of neurons from hyperglycemic conditions (neurons [4])	effect on expression of inflammatory markers (neurons [1]; diabetic neurons)	IC50 [5]
100.0%	99.3%	99.7%	100.3%	99.5%	99.7%	99.3%	–	CO[C@@H]1[C@@H](O)[C@@H](O)[C@H](Oc2ccc(C(F)(F)CNC(C)=O)c(-c3cccc(F)c3)c2)O[C@H]1C [T13]	–	–	–	–	–	–
100.0%	99.9%	99.0%	98.5%	97.9%	97.0%	96.5%	–	CC(=O)NCCc1ccc(O[C@@H]2O[C@@H](C)[C@@H](O)[C@@H](O)[C@@H]2O)cc1-c1cccc(F)c1 [T15]	–	–	–	–	–	–
100.0%	97.7%	94.8%	91.9%	89.2%	86.8%	84.4%	–	CO[C@@H]1[C@@H](O)[C@@H](O)[C@@H](Oc2ccc(CCNC(C)=O)c(-c3cccc(F)c3)c2)OC1(C)C [T20]	–	–	–	–	–	–
100.0%	99.1%	99.0%	97.6%	96.6%	96.0%	95.7%	–	CC(=O)NCCc1ccc(O[C@@H]2OC(C)(C)[C@H](OC(F)F)[C@@H](O)[C@H]2O)cc1-c1cccc(F)c1 [T6]	–	–	–	–	–	–
100.0%	97.6%	97.6%	97.5%	97.2%	98.0%	97.4%	–	CC(=O)NCCc1ccc(O[C@@H]2O[C@@H](CO)[C@H](O)[C@@H](O)[C@H]2O)cc1-c1cccc(F)c1 [T60]	–	–	–	–	–	–
100.0%	101.1%	100.1%	100.5%	100.4%	100.3%	100.4%	–	CC(=O)NCCc1ccc(O[C@@H]2O[C@@H](C)[C@H](O)[C@@H](O)[C@H]2O)cc1-c1cccc(F)c1 [T1]	–	–	comparable to slightly better activity	–	–	–
